Target: Receptor-type tyrosine-protein phosphatase C, CD45/PTPRC (Homo sapiens) (UniProt P08575)
Assay: Inhibition of CD45 PTP by fluorescence spectrometry

Receptor-type tyrosine-protein phosphatase C, CD45/PTPRC (Homo sapiens), sequence (P08575 whole entry, looked up): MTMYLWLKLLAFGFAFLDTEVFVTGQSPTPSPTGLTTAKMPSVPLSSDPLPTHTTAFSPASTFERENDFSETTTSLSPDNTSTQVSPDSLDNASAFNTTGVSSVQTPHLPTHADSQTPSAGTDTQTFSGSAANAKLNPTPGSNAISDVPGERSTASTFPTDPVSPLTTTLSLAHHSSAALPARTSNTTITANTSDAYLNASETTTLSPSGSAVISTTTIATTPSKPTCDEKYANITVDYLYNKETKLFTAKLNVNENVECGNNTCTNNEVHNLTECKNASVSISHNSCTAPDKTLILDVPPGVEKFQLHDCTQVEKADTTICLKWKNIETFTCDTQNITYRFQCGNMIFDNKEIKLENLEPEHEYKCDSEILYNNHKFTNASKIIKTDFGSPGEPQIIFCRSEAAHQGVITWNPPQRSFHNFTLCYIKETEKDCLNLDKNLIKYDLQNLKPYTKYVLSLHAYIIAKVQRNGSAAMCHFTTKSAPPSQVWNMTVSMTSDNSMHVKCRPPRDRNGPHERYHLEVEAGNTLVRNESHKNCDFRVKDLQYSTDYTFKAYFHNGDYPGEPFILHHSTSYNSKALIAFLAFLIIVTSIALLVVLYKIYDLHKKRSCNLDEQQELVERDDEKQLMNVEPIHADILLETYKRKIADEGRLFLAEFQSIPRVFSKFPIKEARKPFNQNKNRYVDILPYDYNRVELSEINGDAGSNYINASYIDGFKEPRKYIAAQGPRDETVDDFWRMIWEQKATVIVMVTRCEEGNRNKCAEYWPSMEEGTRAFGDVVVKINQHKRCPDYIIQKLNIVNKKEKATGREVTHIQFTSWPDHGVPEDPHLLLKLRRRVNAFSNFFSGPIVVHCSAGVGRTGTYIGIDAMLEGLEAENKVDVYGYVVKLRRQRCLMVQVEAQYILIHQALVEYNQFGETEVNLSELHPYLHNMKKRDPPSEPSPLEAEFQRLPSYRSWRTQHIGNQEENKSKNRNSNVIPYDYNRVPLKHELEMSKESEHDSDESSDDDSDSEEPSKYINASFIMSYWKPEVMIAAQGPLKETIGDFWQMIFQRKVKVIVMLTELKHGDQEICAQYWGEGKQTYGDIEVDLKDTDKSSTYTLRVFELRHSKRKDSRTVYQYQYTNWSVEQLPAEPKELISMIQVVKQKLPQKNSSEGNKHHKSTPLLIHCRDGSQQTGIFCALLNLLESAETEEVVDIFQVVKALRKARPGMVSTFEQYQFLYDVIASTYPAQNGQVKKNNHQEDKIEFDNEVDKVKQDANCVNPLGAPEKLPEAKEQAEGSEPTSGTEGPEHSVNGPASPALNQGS

Compound `Oc1ccc(-c2ccc(-c3nnn[nH]3)cc2Cl)cc1C12CC3CC(CC(C3)C1)C2` [5-[3'-(1-adamantyl)-2-chloro-4'-hydroxy-4-biphenyl]-1H-tetrazole] has an IC50 of 1.2 µM.
